Assay results taken from patent US8518953B2, “Aminopyrimidines useful as inhibitors of protein kinases” (Vertex Pharmaceuticals Incorporated, priority 2007, dated 2013).

Columns and labels:
rats subjected to MCAO = experiment: Post Stroke Recovery MCAO Model: Forelimb Inhibition (Swimming Test); type: in vivo, rat; conditions: 7 and 14 days after stroke
Description: Adult male Wistar rats are pre-trained on a battery of behavioral tests including: tray reach, […], forelimb asymmetry (cylinder bracing), forelimb inhibition (swim test) (see below for detailed description of tests). Following pre-stroke behavioral assessment the rats receive surgery during which a stroke is induced. The rats are pseudo-randomly divided into 5 equal groups (n=12) ensuring an equal number of right and left strokes within each treatment group. The first group receives sham surgery with vehicle as treatment. Administration of the test compound and vehicle (dose, route, timing) is determined by the sponsor. The core body temperature is maintained at 37° C. (+/-1°). Following surgery all animals are behaviorally assessed 1, 7, and 14 d post-stroke. At the conclusion of behavioral assessment all rats undergo an MRI to determine infarct volume. Group behavioral performance and stroke volume are compared between groups using one way analysis of variance to determine therapeutic benefit of the compound in rate and extent of recovery of function following MCAO stroke. […] Rectal temperature is monitored and maintained at 37 C+/-1° C. for the duration of the surgery and until the rat is awake and mobile (approximately 3 hr). […] Inhibition of the forelimbs is assessed by filming animals during swimming. […] Only the mid 80% of the length is scored. […]

GSK3β TYR 216 = molecular target: T1, GSK3β TYR 216 (Homo sapiens, UniProt P49841); experiment: GSK3β p-TYR Inhibition Assay (western blotting of Jurkat cells); type: cell-based; conditions: western blot, read-out: GSK3b pTYR 216: IC50
T1 construct: western blotting of Jurkat cells dosed with the compounds; endogenous in cells; host or cells: Jurkat cells
Procedure: Compounds are screened for their ability to inhibit the phosphorylation of tyrosine (TYR) residues through the use of western blotting of Jurkat cells dosed with the compounds. The phosphorylation of the specific TYR residues tested are GSK3α TYR 279 and GSK3β TYR 216.
Jurkat cells are seeded at a density of 2×10^5 cells/well in a 12 well dish in starvation media (RPMI+1% FBS+P/S). Following starvation for 16 hours, the compound is dosed into each well at a final DMSO concentration of 0.3% and cells are incubated o/n at 37° C. 5% CO2. The next day, cells are spun down at 1500 rpm, washed with PBS, and lysed in 100 uL Laemli sample buffer with β-mercaptoethanol.
15 microliters (uL) of cell lysates are loaded onto a 10% tris-glycine gel and run at 120 v for 2 hours or until dye front runs off of the gel. The protein is then transferred onto a PVDF membrane at 100 v for 60 min. PBST (PBS containing 0.1% Tween 20, such as 1 ml Tween per 1 L of PBS) is then made up and used for all washes and antibody incubations. The blot is blocked in 5% nonfat milk PBST for one hour.
The primary antibody (GSK-3α/β pTYR 279/216 at 1:1000 dilution Upstate cat#05-413) is then added in […] PBST overnight at 4° C. with gentle rocking. The blot is then washed in PBST for 5 min. This is then repeated 4 times. […]

T1 sequence (P49841 whole entry): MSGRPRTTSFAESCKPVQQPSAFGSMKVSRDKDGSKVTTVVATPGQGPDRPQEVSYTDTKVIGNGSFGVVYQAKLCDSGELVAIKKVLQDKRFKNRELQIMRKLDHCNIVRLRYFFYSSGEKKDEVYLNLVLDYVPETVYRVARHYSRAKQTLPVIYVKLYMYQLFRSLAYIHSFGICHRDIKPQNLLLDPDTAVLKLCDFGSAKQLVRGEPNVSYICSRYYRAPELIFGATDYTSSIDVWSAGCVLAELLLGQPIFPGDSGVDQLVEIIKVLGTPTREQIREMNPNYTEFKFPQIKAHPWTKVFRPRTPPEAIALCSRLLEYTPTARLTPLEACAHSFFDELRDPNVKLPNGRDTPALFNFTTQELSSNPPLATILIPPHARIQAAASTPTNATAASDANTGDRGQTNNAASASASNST

IC50 (GSK3β TYR 216): 3 nM
Structure (SMILES): Cc1nc(-c2ccccc2Cl)nc(Nc2n[nH]c3ncc(F)cc23)c1C [Compound I-1, N-(2-(2-chlorophenyl)-5,6-dimethylpyrimidin-4-yl)-5-fluoro-1H-pyrazolo[3,4-b]pyridin-3-amine]
deficit in forelimb inhibition (swimming test) (rats subjected to MCAO): significantly ameliorated this deficit
